Laboratory results published in ChEMBL document CHEMBL1201862, “PubChem BioAssay data set” (2004).
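Cultured in 96-well plates, cells were exposed to test compound for 48 hours across five concentrations. The concentration for 50% growth inhibition is given as GI50.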 Calls of active or inactive are those of the source. No stated cut-off is given here; in the data, active = GI50 up to about 1.1 µM and inactive = higher.

Columns and labels:
Test in all cases: DTP human tumour cell line panel, 48 h
786-0 = system: 786-0
A498 = system: A498
A549 = system: A549
ACHN = system: ACHN
CAKI-1 = system: CAKI-1
CCRF-CEM = system: CCRF-CEM
COLO 205 = system: COLO 205
DLD-1 = system: DLD-1
DMS-273 = system: DMS-273
EKVX = system: EKVX
HCC 2998 = system: HCC 2998
HCT-116 = system: HCT-116
HCT-15 = system: HCT-15
HL-60 = system: HL-60
HOP-18 = system: HOP-18
HOP-62 = system: HOP-62
HOP-92 = system: HOP-92
HT-29 = system: HT-29
IGROV-1 = system: IGROV-1
K562 = system: K562
KM-20L2 = system: KM-20L2
KM12 = system: KM12
LOX IMVI = system: LOX IMVI
LXFL 529 = system: LXFL 529
M14 = system: M14
M19-MEL = system: M19-MEL
MOLT-4 = system: MOLT-4
Malme-3M = system: Malme-3M
NCI-H226 = system: NCI-H226
NCI-H23 = system: NCI-H23
NCI-H460 = system: NCI-H460
NCI-H522 = system: NCI-H522
OVCAR-3 = system: OVCAR-3
OVCAR-4 = system: OVCAR-4
OVCAR-5 = system: OVCAR-5
OVCAR-8 = system: OVCAR-8
RPMI-8226 = system: RPMI-8226
RXF 393 = system: RXF 393
SF-268 = system: SF-268
SF-295 = system: SF-295
SF-539 = system: SF-539
SK-MEL-28 = system: SK-MEL-28
SK-MEL-2 = system: SK-MEL-2
SK-MEL-5 = system: SK-MEL-5
SK-OV-3 = system: SK-OV-3
SN12C = system: SN12C
SNB-19 = system: SNB-19
SNB-75 = system: SNB-75
SNB-78 = system: SNB-78
SR = system: SR
SW-620 = system: SW-620
TK-10 = system: TK-10
U-251 = system: U-251
UACC-257 = system: UACC-257
UACC-62 = system: UACC-62
UO-31 = system: UO-31
XF498 = system: XF498

`CCC(C)(O)c1cn(-c2ccc(Cl)cc2)nn1` (stereo unspecified) was tested, and the GI50 (786-0) was > 100 µM (inactive), the GI50 (A498) was > 100 µM (inactive) and the GI50 (A549) was > 100 µM (inactive). The GI50 (ACHN) was > 100 µM (inactive), the GI50 (CAKI-1) was > 100 µM (inactive) and the GI50 (CCRF-CEM) was > 100 µM (inactive). For the same compound, the GI50 (COLO 205) was > 100 µM (inactive), the GI50 (DLD-1) was > 100 µM (inactive) and the GI50 (DMS-273) was > 100 µM (inactive). The GI50 (EKVX) was > 100 µM (inactive), the GI50 (HCC 2998) was > 100 µM (inactive) and the GI50 (HCT-116) was > 100 µM (inactive). For the same compound, the GI50 (HCT-15) was over 100 µM, the GI50 (HL-60) was > 100 µM (inactive) and the GI50 (HOP-18) was > 100 µM (inactive). The GI50 (HOP-62) was > 100 µM (inactive), the GI50 (HOP-92) was > 100 µM (inactive) and the GI50 (HT-29) was > 100 µM (inactive). The GI50 (IGROV-1) was > 100 µM (inactive), the GI50 (K562) was > 100 µM (inactive) and the GI50 (KM-20L2) was > 100 µM (inactive). For the same compound, the GI50 (KM12) was > 100 µM (inactive), the GI50 (LOX IMVI) was > 100 µM (inactive) and the GI50 (LXFL 529) was > 100 µM (inactive). For the same compound, the GI50 (M14) was > 100 µM (inactive), the GI50 (M19-MEL) was > 100 µM (inactive) and the GI50 (MOLT-4) was > 100 µM (inactive). For the same compound, the GI50 (Malme-3M) was > 100 µM (inactive), the GI50 (NCI-H226) was > 100 µM (inactive) and the GI50 (NCI-H23) was > 100 µM (inactive). For the same compound, the GI50 (NCI-H460) was > 100 µM (inactive), the GI50 (NCI-H522) was > 100 µM (inactive) and the GI50 (OVCAR-3) was > 100 µM (inactive). For the same compound, the GI50 (OVCAR-4) was > 100 µM (inactive), the GI50 (OVCAR-5) was > 100 µM (inactive) and the GI50 (OVCAR-8) was > 100 µM (inactive). The GI50 (RPMI-8226) was > 100 µM (inactive), the GI50 (RXF 393) was > 100 µM (inactive) and the GI50 (SF-268) was > 100 µM (inactive). For the same compound, the GI50 (SF-295) was > 100 µM (inactive), the GI50 (SF-539) was > 100 µM (inactive) and the GI50 (SK-MEL-28) was > 100 µM (inactive). For the same compound, the GI50 (SK-MEL-2) was > 100 µM (inactive), the GI50 (SK-MEL-5) was > 100 µM (inactive) and the GI50 (SK-OV-3) was > 100 µM (inactive). The GI50 (SN12C) was > 100 µM (inactive), the GI50 (SNB-19) was > 100 µM (inactive) and the GI50 (SNB-75) was > 100 µM (inactive). The GI50 (SNB-78) was > 100 µM (inactive), the GI50 (SR) was > 100 µM (inactive) and the GI50 (SW-620) was > 100 µM (inactive). The GI50 (TK-10) was > 100 µM (inactive), the GI50 (U-251) was > 100 µM (inactive) and the GI50 (UACC-257) was > 100 µM (inactive). For the same compound, the GI50 (UACC-62) was > 100 µM (inactive) and the GI50 (UO-31) was > 100 µM (inactive).

In the case of `COC(=O)c1cc(=O)nc2cc3cccccc3n12`, the GI50 (786-0) is reported as > 100 µM (inactive), the GI50 (A498) is reported as > 100 µM (inactive) and the GI50 (A549) is reported as > 100 µM (inactive). For the same compound, the GI50 (ACHN) was > 100 µM (inactive), the GI50 (CCRF-CEM) was > 100 µM (inactive) and the GI50 (COLO 205) was > 100 µM (inactive). For the same compound, the GI50 (DLD-1) was > 100 µM (inactive), the GI50 (EKVX) was > 100 µM (inactive) and the GI50 (HCC 2998) was > 100 µM (inactive). For the same compound, the GI50 (HCT-116) was > 100 µM (inactive), the GI50 (HCT-15) was over 100 µM and the GI50 (HL-60) was > 100 µM (inactive). The GI50 (HOP-18) was > 100 µM (inactive), the GI50 (HOP-62) was > 100 µM (inactive) and the GI50 (HT-29) was > 100 µM (inactive). For the same compound, the GI50 (IGROV-1) was > 100 µM (inactive), the GI50 (K562) was > 100 µM (inactive) and the GI50 (KM-20L2) was > 100 µM (inactive). The GI50 (KM12) was > 100 µM (inactive), the GI50 (LOX IMVI) was > 100 µM (inactive) and the GI50 (LXFL 529) was > 100 µM (inactive). For the same compound, the GI50 (M14) was > 100 µM (inactive), the GI50 (M19-MEL) was > 100 µM (inactive) and the GI50 (MOLT-4) was > 100 µM (inactive). For the same compound, the GI50 (Malme-3M) was > 100 µM (inactive), the GI50 (NCI-H226) was > 100 µM (inactive) and the GI50 (NCI-H23) was > 100 µM (inactive). The GI50 (NCI-H460) was 59 µM (inactive), the GI50 (NCI-H522) was > 100 µM (inactive) and the GI50 (OVCAR-3) was > 100 µM (inactive). For the same compound, the GI50 (OVCAR-5) was > 100 µM (inactive), the GI50 (OVCAR-8) was > 100 µM (inactive) and the GI50 (RPMI-8226) was > 100 µM (inactive). For the same compound, the GI50 (RXF 393) was > 100 µM (inactive), the GI50 (SF-295) was > 100 µM (inactive) and the GI50 (SF-539) was > 100 µM (inactive). The GI50 (SK-MEL-28) was > 100 µM (inactive), the GI50 (SK-MEL-5) was > 100 µM (inactive) and the GI50 (SK-OV-3) was > 100 µM (inactive). For the same compound, the GI50 (SN12C) was > 100 µM (inactive), the GI50 (SNB-19) was > 100 µM (inactive) and the GI50 (SNB-75) was > 100 µM (inactive). For the same compound, the GI50 (SR) was > 100 µM (inactive), the GI50 (SW-620) was > 100 µM (inactive) and the GI50 (TK-10) was > 100 µM (inactive). For the same compound, the GI50 (U-251) was > 100 µM (inactive), the GI50 (UACC-257) was > 100 µM (inactive) and the GI50 (UACC-62) was > 100 µM (inactive). For the same compound, the GI50 (UO-31) was > 100 µM (inactive) and the GI50 (XF498) was > 100 µM (inactive).
